# Measurements published in article PMC4502315, “High Potency of a Novel Resveratrol Derivative, 3,3′,4,4′-Tetrahydroxy-trans-stilbene, against Ovarian Cancer Is Associated with an Oxidative Stress-Mediated Imbalance between DNA Damage Accumulation and Repair” (Oxidative Medicine and Cellular Longevity, 2015).
# Legend:
# [1] = system: OVCAR-3; test: MTT viability assay, OVCAR-3; type: cell-based; conditions: Homo sapiens, 24 h; for IC50: CalcuSyn
# Description: (§1) Cell viability was assessed with the MTT test and with lactate dehydrogenase (LDH) release assay. As per the MTT method, normal and cancer cells were seeded into 96-well plates at high density and allowed to attach overnight. Then they were incubated in a medium containing 1.25 mg/mL of the MTT salt [3-(4,5-dimethylthiazol-2-yl)-2,5-diphenyltetrazolium bromide] for 24 h at 37°C. The generated formazan was solubilized with 20% sodium dodecyl sulphate and 50% N,N-dimethylformamide. Absorbance of the converted dye was recorded at 595 nm with a reference wavelength of 690 nm.
# (§2) In order to examine the effect of 3,3′,4,4′-THS on the viability of ovarian cancer cells and to compare its activity with RVT, subconfluent cultures of A2780, OVCAR-3, and SKOV-3 cells were subjected to a wide range of stilbene concentrations (0–500 μM) for 24 h; then MTT and LDH release assays were performed.
# [2] = MTT viability assay, HOSE cells; type: cell-based, human; conditions: human, percentage of control cells
# Description: as §1, §2
# [3] = MTT viability assay, HPMCs; type: cell-based, human; conditions: human, percentage of control cells
# Description: as §1, §2
# [4] = LDH release assay, HOSE cells; type: cell-based, human; conditions: human, percentage of control cells
# [5] = LDH release assay, HPMCs; type: cell-based, human; conditions: human, percentage of control cells
# [6] = system: HOSE cells; test: ROS production (H2DCFDA), HOSE cells; type: cell-based, human; conditions: 24 h, percentage of control cells
# Description: ROS production was assessed in cells probed with a fluorescent dye, 2′,7′-dichlorodihydrofluorescein diacetate (H2DCFDA; 5 μM) (Molecular Probes, Eugene, USA) for 45 min at 37°C. Fluorescence intensity in cell lysates was monitored in a Victor2 spectrofluorometer with excitation at 485 nm and emission at 535 nm.
# [7] = system: catalase (CAT); test: CAT activity, HOSE cells; type: cell-based, human; conditions: 24 h, percentage of control cells
# Description: Total activity of superoxide dismutase (SOD) was measured in cell lysates with a commercially available kit (R&D Systems Europe, Abingdon, UK), while the activity of catalase (CAT) was estimated by using the OxiSelect Catalase Activity Assay Kit (Cell Biolabs Inc., San Diego, CA, USA). Both assays were performed according to the manufacturer's instructions.
# [8] = system: SKOV-3 cells; test: Apoptosis (Hoechst 33258), SKOV-3; type: cell-based, human; conditions: 24 h, 10, 50, 100 μM tested
# Description: (§3) Identification of apoptosis was based on the presence of DNA condensation in cells stained with a fluorescent dye, Hoechst 33258 (Molecular Probes, Eugene, OR). Cells were grown on Lab-Tek Chamber Slides (Nunc, Roskilde, Denmark), fixed with 4% formaldehyde for 10 min and washed twice with PBS. Then the cells were incubated with Hoechst 33258 (0.1 μg/mL) for 5 min in the dark. After washing with PBS, stained nuclei were observed and counted under a Zeiss Axio Observer D1 fluorescence microscope (Carl Zeiss, Jena, Germany). The activity of caspases 3, 8, and 9 was quantified in the cell lysates using specific colorimetric kits (Abcam, Cambridge, UK) according to the manufacturer's instructions.
# [9] = system: HPMCs; test: Cell proliferation (CFDA SE), HPMCs; type: cell-based, human; conditions: 24 h, percentage of control cells
# Description: Cell proliferative potential was determined using Cell Proliferation Kit I (PromoKine, Heidelberg, Germany) according to the manufacturer's instructions. In brief, cells were probed for 15 min with 5-(and 6)-carboxyfluorescein diacetate, a succinimidyl ester (CFDA SE; 2 μM) which diffuses into cells, covalently binds to proteins, and becomes fluorescent upon its hydrolysis by intracellular esterases. The fluorescence emitted by the cells (the dye is inherited by the daughter cells through successive divisions) was recorded using a Victor2 spectrofluorometer (Perkin-Elmer, Turku, Finland) with excitation at 435 nm and emission at 535 nm.
# [10] = system: A2780 cells; test: SA-β-Gal activity (senescence), A2780; type: cell-based, human; conditions: 24 h, 10, 50, 100 μM tested
# Description: The activity of SA-β-Gal in the cell extracts was quantified by measuring the rate of conversion of 4-methylumbelliferyl-β-D-galactopyranoside to 4-methylumbelliferone, as described in [19]. In order to visualize expression of the enzyme in the cancer cell cytoplasm, cytochemical staining for SA-β-Gal was performed according to Dimri et al..
# [11] = system: caspase-9; test: Caspase-9 activity in ovarian cancer cell lysates; type: cell-based, human; conditions: ovarian cancer cells (A2780, OVCAR-3, SKOV-3); 24 h
# Description: as §3
# [12] = system: DNA glycosylase I (hOgg1); test: DNA glycosylase I (hOgg1) mRNA expression (RT-PCR), ovarian cancer cells; type: cell-based, human; conditions: all three cancer cell lines; after preincubation with stilbene, 24-h recovery
# Description: Oxidative DNA damage was assessed by measuring the 8-OH-dG concentration with a competitive immunoassay (Cell Biolabs Inc.), as per manufacturer's instructions. The efficiency of 8-OH-dG repair was estimated after cell recovery for 24 h in standard growth medium. In order to examine the activity of DNA glycosylase I, reverse transcription PCR was performed. RNA extraction was carried out using the RNA Bee (Tel-Test, Friendswood, Texas, USA) and purified according to the manufacturer's protocol. One microgram of RNA was reverse transcribed into cDNA with random hexamer primers, and cDNA was subjected to PCR. The profile of the replication cycles was denaturation at 94°C for 50 s, annealing at 58°C for 50 s, and polymerization at 72°C for 1 min. In each reaction, the expression of glyceraldehyde-3-phosphate dehydrogenase (GAPDH) served as the internal control. The primers used for PCR were as follows: hOGG1 forward, 5′-[…]-3′; hOGG1 reverse, 5′-TAGCCCGCCCTGTTCTTC-3′ designed to amplify a 551-bp region; GAPDH forward, 5′-CCATGGAGAAGGCTGGGG-3′; and GAPDH reverse 5′-[…]-3′ designed to amplify a 194-bp region (total number of cycles: 28). The PCR products were separated on 3% agarose gels stained with ethidium bromide and then visualized.
SMILES,IC50 [1],ROS ([6]; 10 μM),ROS ([6]; 50 μM),ROS ([6]; 100 μM),CAT ([7]; 10 μM),CAT ([7]; 50 μM),CAT ([7]; 100 μM),"incidence of apoptosis (rise in percentage of death cells), effect in words [8]",Proliferation ([9]; 10 μM),Proliferation ([9]; 50 μM),Proliferation ([9]; 100 μM),"SA-β-Gal activity (senescence), effect in words [10]","caspase-9 activity, effect in words [11]",other results
"Oc1ccc(/C=C/c2ccc(O)c(O)c2)cc1O [3,3′,4,4′-THS, 3,3′,4,4′-tetrahydroxy-trans-stilbene]",50 µM,75 ± 4^∗# %,72 ± 3^∗# %,99 ± 4 %,132 ± 1^∗# %,163 ± 4^∗# %,162 ± 1^∗# %,evident starting from the lowest concentration of 10 μM,141 ± 3^∗# %,103 ± 1%,102 ± 2%,"increased SA-β-Gal at each dose, reaching the highest activity at as low a dose as 10 μM",increased the activity of the same caspases as RVT did,"viability at 10 µM ([1]; 10 μM, percentage of control cells): 75 ± 3%; viability at 50 µM ([1]; 50 μM, percentage of control cells): 50 ± 3%; viability at 100 µM ([1]; 100 μM, percentage of control cells): 48 ± 3%; viability at 24 h, 10 µM ([2]; 10 μM): 105 ± 2%; viability at 24 h, 50 µM ([2]; 50 μM): 100 ± 4%; viability at 24 h, 100 µM ([2]; 100 μM): 107 ± 2%; viability at 24 h, 10 µM ([3]; 10 μM): 108 ± 14%; viability at 24 h, 50 µM ([3]; 50 μM): 100 ± 4%; viability at 24 h, 100 µM ([3]; 100 μM): 102 ± 2%; viability at 24 h, 10 µM ([4]; 10 μM): 101 ± 2%; viability at 24 h, 50 µM ([4]; 50 μM): 100 ± 4%; viability at 24 h, 100 µM ([4]; 100 μM): 102 ± 2%; viability at 24 h, 10 µM ([5]; 10 μM): 101 ± 2%; viability at 24 h, 50 µM ([5]; 50 μM): 100 ± 4%; viability at 24 h, 100 µM ([5]; 100 μM): 102 ± 2%; hOgg1 mRNA expression during recovery, in words [12]: remarkably lower as compared to values characterizing cells subjected to RVT"
"Oc1ccc(/C=C/c2cc(O)cc(O)c2)cc1 [RVT, 3,4′,5-trihydroxy-trans-stilbene, reference compound]",480 µM,103 ± 3%,105 ± 4%,121 ± 7^∗ %,121 ± 6^∗ %,119 ± 4^∗ %,121 ± 6^∗ %,exhibiting its impact at concentrations of 50 and 100 μM for the A2780 and SKOV-3 cells,99 ± 3%,103 ± 4%,102 ± 2%,did not change,"activated caspases 9 and 3, and this activity was evident at 50 and 100 μM",–
